Where two headings read alike, the source gives them in different places.
Tests used:
[1] = molecular target: T1, h5-HT2AR (Homo sapiens, UniProt P28223); type: binding; conditions: 1 nM [3H]ketanserin, N ≥ 3; read-out: 5-HT2AR Ki ± SD
T1 construct: purchased Perkin Elmer, Inc. (Waltham, MA, USA)
Protocol: (§1) Binding assays were performed as described previously. Briefly, membrane preparations expressing h5-HT1AR, h5-HT2AR or hSERT (see Supplementary Material) were incubated with radiolabeled selective ligands 0.4 nM [^3H]8-OH-DPAT, 1 nM [^3H]ketanserin or 3 nM [^3H]imipramine, respectively. The drugs were diluted in the corresponding binding buffer and tested at increasing concentrations in duplicate. Binding reactions were performed in tubes containing the drug dilutions; 25 μl of the corresponding radioligand; and the membranes (10 μg and 5 μg/500 μL for 5-HT1AR and 5-HT2AR, respectively, and 15 μg/100 μL for hSERT), all diluted in binding buffer. […] Incubation was performed for 1 h at 27 °C for 5-HT1A/2AR and 22 °C for hSERT, according to the manufacturer’s protocol (Perkin Elmer, Inc., Waltham, MA, USA) and previous studies - saturation and kinetic experiments, respectively. The binding reactions were stopped by rapid filtration through GF/B glass microfiber filters pre-soaked with 0.5% polyethyleneimine and washing with ice-cold wash buffer. The filters were placed into vials and scintillation cocktail was added. The trapped radioactivity was quantified. Specific binding was defined as the difference between total binding (binding buffer alone) and non-specific binding. Experiments were conducted per duplicate for at least three independent experiments.

[2] = system: horizontal locomotor activity in mice; test: Horizontal locomotor activity (HLA); type: in vivo; conditions: i.p., 30 min; for HLA (hypolocomotion) Emax (95% CI): total traveled distance
Protocol: The HLA test was carried out according to a previous study. The same animals (N = 8–10 per group) used for the assessment of HTR were recorded for 30 min in an observation arena, under low-light conditions with white noise. Video recordings were processed using a tracking software (Smart 3.0 Panlab, Barcelona, Spain) to measure the total traveled distance.
(§2) Data were expressed as means±standard deviation (SD). Competition, release and functional assays, and substrate-induced current curves were plotted and fitted by non-linear regression to obtain the IC50, EC50, and Emax values. For behavioral studies, data were fitted by non-linear regression and pED50 and Emax values (with the corresponding 95% CI) were estimated by means of a software (GraphPad Prism 10) that further extrapolates the data. The Cheng-Prusoff equation was used to calculate Ki (affinity): Ki = […]/(1 + [radioligand-concentration/Kd]). HTR curves were fitted using a Gaussian equation as described. Data from batch release assays were statistically analyzed with a mixed-effects model, employing Šidák’s correction for multiple comparisons. Total release at each concentration and the behavioral experiments with the corresponding antagonists were statistically analyzed using one-way ANOVA, followed by Tukey’s post-hoc test. Molecular volume (van der Waals) was calculated using a grid approximation (spacing 0.75 Å). logP was calculated using Molinspiration Cheminformatics software. For in vivo studies, one-way ANOVA with Dunnet’s post-hoc test was used to compare all conditions to saline in dose-response experiments when data were normally distributed. Otherwise, a non-parametric test (Kruskall-Wallis with Dunn’s post-hoc test) was used. Alpha was set at 0.05. Outliers were excluded following ROUT’s method (Q = 0.1%). All statistical analyses and Pearson correlations were conducted using GraphPad Prism 10 software (GraphPad software, San Diego, CA, USA).

[3] = system: core body temperature in mice; test: Core body temperature measurement; type: in vivo; conditions: mice, i.p., 60 min after injection
Protocol: Rectal temperature of mice (N = 8–10 per group) was measured 60 min after i.p. injection of the corresponding compound (see previous section “Head twitch response”). This time point was chosen according to the maximal effect observed in pilot experiments. A thermocouple probe (YS451, Panlab, Barcelona, Spain) connected to a digital thermometer (TMP812RS, Panlab, Barcelona, Spain) was inserted 2 cm into the rectum and steady temperature readout was obtained after 10 s of insertion.
as §2

[4] = molecular target: T2, SERT (Homo sapiens, UniProt P31645); test: Radioligand binding, [3H]imipramine displacement
T2 construct: YFP (yellow-fluorescent protein); expressed in transfected cells
T2 sequence (P31645 whole entry): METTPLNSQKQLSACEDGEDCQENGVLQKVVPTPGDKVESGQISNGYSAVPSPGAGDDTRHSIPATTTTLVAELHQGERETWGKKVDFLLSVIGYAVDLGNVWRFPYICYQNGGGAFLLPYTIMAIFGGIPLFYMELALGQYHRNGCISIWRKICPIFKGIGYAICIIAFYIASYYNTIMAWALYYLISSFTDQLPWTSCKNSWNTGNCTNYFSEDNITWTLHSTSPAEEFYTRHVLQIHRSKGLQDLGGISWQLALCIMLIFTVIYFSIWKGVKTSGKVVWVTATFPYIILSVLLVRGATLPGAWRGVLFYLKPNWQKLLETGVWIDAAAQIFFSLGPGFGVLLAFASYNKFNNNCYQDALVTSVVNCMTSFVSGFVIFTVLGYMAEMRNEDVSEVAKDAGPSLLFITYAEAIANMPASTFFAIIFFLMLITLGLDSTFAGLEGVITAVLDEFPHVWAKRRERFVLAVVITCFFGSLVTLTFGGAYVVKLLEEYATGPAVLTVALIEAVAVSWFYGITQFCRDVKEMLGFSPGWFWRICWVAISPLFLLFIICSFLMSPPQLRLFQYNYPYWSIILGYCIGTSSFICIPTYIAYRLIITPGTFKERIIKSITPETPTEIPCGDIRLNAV
Protocol: as §1
The generation and maintenance of HEK293 cells stably expressing the yellow-fluorescent protein (YFP)-tagged version of the human isoform of SERT (hSERT) (Perkin Elmer, Waltham, MA, USA) was carried out as described previously. For uptake inhibition and batch release assays, cells were seeded onto previously poly-D-lysine (PDL)-coated 96-well plates at a density of 0.036 million cells per well [5]. For superfusion release assays, cells were seeded onto a previously coated with PDL 6 channel µ-slide at a density of 0.08 million cells per channel. Prior to patching, cells were grown in DMEM containing 10% FBS, Zeocin (150 µg/mL) and Blasticidin (6 µg/mL) for positive selection of transporter-expressing clones. The cells were seeded at a low density on PDL-coated 35 mm plates 24-48 hr prior to patching. For membrane preparation, HEK293 cells expressing hSERT transporters were harvested from 80–90% confluent dishes as described elsewhere. Protein concentration was determined using the Bio-RadProtein Reagent (Bio Rad Laboratories, Hercules, CA, USA). Membrane preparations were stored at −80°C until use. Generation and maintenance of CHO-K1 cells expressing the human isoform of 5-HT2AR (h5-HT2AR) was carried out as described in the manufacturer’s protocol (Perkin Elmer, Waltham, MA, USA). Routine DAPI-Staining assays tested negative in mycoplasma contamination.

[5] = molecular target: T2, SERT; test: Batch release of preloaded [3H]5-HT from HEK293 cells expressing SERT; type: cell-based; conditions: for 5-HT releasing activity: with or without monensin, pCA as positive control; for 5-HT release at SERT: with or without monensin 10 µM
Protocol: Batch release is a functional radiometric assay to assess transporter-mediated efflux. […] Subsequently, cells were washed three times with KHB and equilibrated for 10 min in KHB or KHB+monensin (10 µM). […] 10 µM pCA and 0.05 µM paroxetine were used as positive and negative controls, respectively. Liquid scintillation cocktail was added both to the wells containing cells (200 µL) and to the transferred supernatant (100 µL). Total radioactivity determined from/in the remaining lysate of the cells plus the transferred supernatant was set as 100%, and the radioactivity determined in each fraction was expressed as a percentage thereof. Assays were performed per duplicate for five independent experiments.

[6] = 3 nM [3H]imipramine, N ≥ 3, read-out: SERT Ki ± SD

T1 sequence (P28223 whole entry): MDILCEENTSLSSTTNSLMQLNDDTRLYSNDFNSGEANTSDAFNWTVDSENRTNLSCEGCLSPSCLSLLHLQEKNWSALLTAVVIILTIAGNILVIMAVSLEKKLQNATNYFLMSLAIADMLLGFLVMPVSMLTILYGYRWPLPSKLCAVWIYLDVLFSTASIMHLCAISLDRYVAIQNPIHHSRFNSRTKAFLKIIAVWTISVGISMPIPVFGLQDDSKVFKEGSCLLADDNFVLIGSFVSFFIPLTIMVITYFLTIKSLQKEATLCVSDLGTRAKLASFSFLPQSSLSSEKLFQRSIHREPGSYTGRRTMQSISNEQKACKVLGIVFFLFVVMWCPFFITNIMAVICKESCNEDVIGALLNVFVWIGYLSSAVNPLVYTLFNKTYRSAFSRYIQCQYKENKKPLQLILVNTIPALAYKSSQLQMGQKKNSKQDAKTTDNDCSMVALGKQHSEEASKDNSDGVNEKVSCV

Structure (SMILES)	Ki [1] [nM]	HLA (hypolocomotion) ED50 [2] [mg/kg]	HLA (hypolocomotion) Emax (95% CI) [2]	Change in body temperature ED50 [3] [mg/kg]	Ki [4, 6] [nM]	5-HT releasing activity [5]	5-HT release at SERT [5] [% total cpm]	ED50 ([2]; Mus musculus, ip, 0.5 h, read-out: HLA (hypolocomotion) ED50) [mg/kg]	ED50 ([3]; Mus musculus, ip, 1 h, read-out: Change in body temperature ED50) [mg/kg]	Ki [4] [nM]
C=CCN(CC=C)CCc1c[nH]c2ccc(OC)cc12 [5-MeO-DALT]	71.7 ± 14.8	6.22	73.11 (57.45–88.78) % reduction	13.6	1190 ± 96	slight to none 5-HT releasing activity				
COc1ccc2[nH]cc(CCN(C)C(C)C)c2c1 [5-MeO-MIPT]	147 ± 32	6.57	82.78 (62.16–103.4) % reduction	14.8	2870 ± 928	slight to none 5-HT releasing activity	< 10			
CCN(CC)CCc1c[nH]c2ccc(OC)cc12 [5-MeO-DET]	128 ± 4	4.78	63.56 (37.58–89.53) % reduction	7.18	10400	capable of evoking 5-HT release				
COc1ccc2[nH]cc(CCN3CCCC3)c2c1 [5-MeO-pyr-T]	373 ± 59	1.60	71.25 (60.71–81.79) % reduction	2.89	3010 ± 354	capable of evoking 5-HT release				
CCN(CCc1c[nH]c2ccc(OC)cc12)C(C)C [5-MeO-EIPT]	151 ± 26	4.82	68.02 (54.57–81.46) % reduction	15.0	1780 ± 83		< 10			
COc1ccc2[nH]cc(CCN(C(C)C)C(C)C)c2c1 [5-MeO-DIPT, 5-methoxy-N,N-diisopropyltryptamine]			55.32 (38.20–72.44) % reduction			slight to none 5-HT releasing activity		4.52	14.8	1620 ± 475
CCN(C)CCc1c[nH]c2ccc(OC)cc12 [5-MeO-MET]	94.1 ± 16.7	1.70	66.79 (58.20–75.37) % reduction	4.76	7710 ± 3380	capable of evoking 5-HT release				
